According to BindingDB's records for doi:10.1002/cbic.201700052 (University of Illinois, 2017):

How the values were obtained:
Experiment in all cases: In Silico Screening
[1] = biological target: T1, 4-hydroxy-3-methylbut-2-enyl diphosphate reductase (Aquifex aeolicus (strain VF5), UniProt O67625)
T1 sequence (O67625 whole entry): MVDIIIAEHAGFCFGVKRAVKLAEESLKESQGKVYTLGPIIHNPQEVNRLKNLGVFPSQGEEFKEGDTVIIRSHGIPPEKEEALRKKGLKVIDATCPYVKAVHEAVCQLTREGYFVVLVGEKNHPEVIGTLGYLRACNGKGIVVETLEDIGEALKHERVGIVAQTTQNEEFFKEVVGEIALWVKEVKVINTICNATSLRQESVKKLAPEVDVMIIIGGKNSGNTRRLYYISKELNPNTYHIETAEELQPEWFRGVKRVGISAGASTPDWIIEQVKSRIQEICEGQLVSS
Description: (§1) In order to find new inhibitors, we carried out in silico screening of AaIspH and EcIspH using ZINC and National Cancer Institute (NCI) libraries and Glide docking, essentially as previously described.[Lindert et al., Chem. Biol. Drug Des., 81:742-748]

[2] = biological target: T2, 4-hydroxy-3-methylbut-2-enyl diphosphate reductase (Escherichia coli (strain K12), UniProt P62623)
T2 sequence (P62623 whole entry): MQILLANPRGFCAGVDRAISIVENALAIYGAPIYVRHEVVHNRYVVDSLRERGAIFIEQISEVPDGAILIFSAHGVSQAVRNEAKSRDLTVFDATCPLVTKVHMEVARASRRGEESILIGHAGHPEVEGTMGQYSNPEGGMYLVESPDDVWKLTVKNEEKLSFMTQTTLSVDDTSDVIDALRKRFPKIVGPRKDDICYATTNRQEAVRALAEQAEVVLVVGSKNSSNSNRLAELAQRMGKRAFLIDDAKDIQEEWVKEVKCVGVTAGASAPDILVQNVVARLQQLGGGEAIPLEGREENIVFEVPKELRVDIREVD
Description: as §1

[3] = biological target: T3, 4-hydroxy-3-methylbut-2-enyl diphosphate reductase (Pseudomonas aeruginosa (strain ATCC 15692 / PAO1 / 1C / PRS 101 / LMG12228), UniProt Q9HVM7)
T3 sequence (Q9HVM7 whole entry): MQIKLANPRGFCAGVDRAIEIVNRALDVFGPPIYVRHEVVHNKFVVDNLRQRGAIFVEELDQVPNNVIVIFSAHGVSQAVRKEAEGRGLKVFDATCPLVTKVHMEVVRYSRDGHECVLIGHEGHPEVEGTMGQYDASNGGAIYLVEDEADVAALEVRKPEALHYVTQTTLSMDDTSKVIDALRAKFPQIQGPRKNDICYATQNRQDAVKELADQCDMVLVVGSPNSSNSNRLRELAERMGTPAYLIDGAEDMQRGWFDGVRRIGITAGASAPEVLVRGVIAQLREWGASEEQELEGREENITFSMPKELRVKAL
Description: as §1

Row | Structure (SMILES) | Ki [1] [nM] | Ki [2] [nM] | Ki [3] [nM]
1 | Nc1ccc2c(c1)CC1(C(=O)NC(=O)NC1=O)C1CN(Cc3ccccc3)CCN21 (stereo not drawn) [8-Amino-3-benzyl-2,3,4,4 a-tetrahydro-1,2'H,6H-spiro[pyrazino[1,2-a]quinoline-5,5'-pyrimidine]-2',4',6'(1'H,3'H)-trione] | 700 | 3000 | –
2 | CCN1CCN2c3ccc(N)cc3CC3(C(=O)NC(=O)NC3=O)C2C1 (stereo not drawn) [IspH inhibitor, 8] | – | – | 500
